Structures can show the parent of a compound that is named as a salt.
How the values were obtained:
[1] = system: spontaneously hypertensive rats (SHR); test: Antihypertensive activity test: blood pressure and heart rate of spontaneously hypertensive rats (SHR); assay type: in vivo, rat; conditions: 200 mg/kg
Description: Tested Drugs: Compounds of the Invention. The dosage of all compound was uniformly set to 200 mg/kg.
In the test, changes in the blood pressure before and after the administration were detected, and compared with the basic value, a reduction of SBP ≥20 mmHg after administration was judged as effective antihypertensive effects; and at the same time, changes in the heart rate before and after the administration were detected.
Heart rate was expressed as mean±standard deviation (x±s). The changes of heart rate before and after the administration were compared by using Two-sample equal variance paired t test, and P<0.05 was regarded as the standard of statistically significant difference.

[2] = system: hypoxic pulmonary hypertension model rats; test: Hypoxic pulmonary hypertension model rats, oral (gavage) treatment for 28 days; assay type: in vivo, SD rats; conditions: hypoxic PAH rats, 25 mg/kg
Description: An animal model of pulmonary hypertension in SD rats was established in a hypoxic and low-pressure environment, and compound 1 was administered by gavage at the same time for treatment. The rat pulmonary artery hemodynamics and right heart hypertrophy index RVHI were measured to determine whether compound 1 has effects of improving hypoxic pulmonary hypertension.
(§1) SD rats (purchased from Shanghai Xipuer-Bikai Experimental Animal Co., Ltd.), male, weighing 180-200 g, were bred in an artificially controlled animal room with each 12 hours of light and darkness at a temperature of 20-25° C. and relative humidity of 50-60%, and allowed ad libitum to food and water. The rats were randomly divided into groups according to the experimental requirements, and kept separately in cages, with 3 to 4 rats per cage. All relevant operations of animal experiments are in compliance with the provisions of “Guidelines for the Management and Use of Laboratory Animals” of China.
The hypoxic PAH model was established by placing SD male rats in a fully-automatically regulated low-pressure hypoxic chamber (atmospheric pressure of about 50 kPa, oxygen concentration of 10%) for 8 hours a day for 28 days. The rats in the blank control group were kept in a normoxic environment.
The experimental rats of hypoxic PAH model were divided into 8 groups, namely blank control group, model group, Sidenafil (25 mg/kg) group, compound 1 (10 mg/kg) group, compound 1 (25 mg/kg) group, compound 1 (50 mg/kg) group, compound 1 (100 mg/kg) group, and compound 1 (200 mg/kg) group. The concentration in the parentheses of the group name represents the administration concentration of the compound or drug. In hypoxia-induced PAH experiments, Sidenafil is often used as a positive drug, which can reduce the pulmonary artery pressure in rats and reduce the right ventricular hypertrophy and vascular remodeling. In this experiment, 25 mg/kg of Sidenafil was used as the positive drug. Both the positive drugs Sidenafil and Compound 1 were dissolved in physiological saline and formulated into solutions of different concentrations according to different administration concentrations. The rats were continuously administered for 28 days with an administration volume of 5 ml/kg. Rats in the control and model groups were given the corresponding volume of physiological saline solution via gavage. The specific grouping can be found in Table 5.
After the administration was completed, the POWERLAB biological information acquisition and treatment system was started, and the right cardiac catheter filled with 0.2% heparin sodium (Beijing Solo Technology Co. Ltd.) in normal saline was connected to the pressure transducer and then zero-calibrationed for use. After 20% urethane (Shanghai Yuanye Biotechnology Co., Ltd.) solution was injected into the abdominal cavity of the rats for anesthesia, the right neck hair was shaved and the right jugular vein was isolated and exposed. […] After the typical right ventricular waveform appeared and stabilized for a while, the waveform was recorded, and then the pressure value was read by Powerlab biological information acquisition and processing system (ADInstruments).
After the pressure was measured, the catheter was taken out, and the rat was dissected immediately to take out the heart and lung tissues. The right ventricle (RV) and the left ventricle and interventricular septum (LV+S) were separated and weighed, and the right heart hypertrophy index RVHI=RV/(LV+S) was calculated. The lung lobe tissue from the right lower part of the lung was separated, soaked in 4% paraformaldehyde (Sigma) for about 1 week to prepare a paraffin section with a thickness of 3 μm, and then conducted to hematoxylin-eosin staining (Wuhan Guge Biotechnology Co., Ltd.). […]

[3] = system: monocrotaline-induced pulmonary hypertension model rats (MCT-PAH); test: Monocrotaline-induced pulmonary hypertension model rats, oral (gavage) treatment for 21 days; assay type: in vivo, SD rats; conditions: 1 mg/kg
Source text: Monocrotaline (MCT) was subcutaneously injected to establish an animal model of pulmonary hypertension in SD rats. At the same time, compound 1 was given by gavage for treatment. The pulmonary artery hemodynamics and right heart hypertrophy index RVHI of the rates were detected to determine whether the oral administration of compound 1 has effects of improving Monocrotaline induces pulmonary hypertension.
as §1
During the experiment, SD rats were randomly divided into 4 groups: blank control group, pulmonary hypertension model group, Selexipag (1 mg/kg) treatment group and compound 1 (100 mg/kg) group with 6 rats in each group, and the concentration in brackets represents the administration concentration of the compound, in which Selexipag is a new oral long-acting prostacyclin receptor agonist discovered and synthesized by Japan New Drug Co., Ltd. On the first day of the experiment, normal saline was injected subcutaneously into the back of neck of rats in the blank control group, and monocrotaline (Chengdu Purifa Biotechnology Co., Ltd.) solution was injected in the rats in other groups at a dosage of 60 mg/kg. Both the positive drug, Selexipag and Compound 1 were administered by gavage. Selexipag and […] were dissolved in 0.5% CMC-Na solution. The rats were continuously administered for 21 days with a volume of […]. The rats in the control and model groups were given the corresponding volume of CMC-Na solution by gavage. Specific groupings can be found in Table 7.
After the administration, the pulmonary vascular hemodynamics and RVHI was determined according to the same experiment method as that in Example 1.

[4] = after administration (6 h M ± SD), n = 8
[5] = before administration, M ± SD, n = 8

Compound: CCc1cccc(C(O)COC(=O)[C@@H](C)N)c1 (stereo partly drawn) [Compound 22]
- SBP Difference before and after administration, 1 h ([1]; 1 h): 11 mmHg
- SHR blood pressure (SBP), time after administration 1 h ([1]; 1 h, n = 8): 187 ± 6.39 mmHg
- SBP Difference before and after administration, 2 h ([1]; 2 h): 14 mmHg
- SHR blood pressure (SBP), time after administration 2 h ([1]; 2 h, n = 8): 184 ± 4.69 mmHg
- SBP Difference before and after administration, 3 h ([1]; 3 h): 26 mmHg
- SHR blood pressure (SBP), time after administration 3 h ([1]; 3 h, n = 8): 171 ± 12.14 mmHg
- SBP Difference before and after administration, 4 h ([1]; 4 h): 25 mmHg
- SHR blood pressure (SBP), time after administration 4 h ([1]; 4 h, n = 8): 173 ± 13.7 mmHg
- SBP Difference before and after administration, 5 h ([1]; 5 h): 24 mmHg
- SHR blood pressure (SBP), time after administration 5 h ([1]; 5 h, n = 8): 174 ± 15.9 mmHg
- SBP Difference before and after administration, 6 h ([1]; 6 h): 20 mmHg
- SHR blood pressure (SBP), time after administration 6 h ([1]; 6 h, n = 8): 178 ± 8.78 mmHg

Compound: CCc1cccc(C(CO)OC(=O)CN)c1 (stereo not drawn) [Compound 23]
- SBP Difference before and after administration, 1 h ([1]; 1 h): 10 mmHg
- SHR blood pressure (SBP), time after administration 1 h ([1]; 1 h, n = 8): 186 ± 6.39 mmHg
- SBP Difference before and after administration, 2 h ([1]; 2 h): 9 mmHg
- SHR blood pressure (SBP), time after administration 2 h ([1]; 2 h, n = 8): 187 ± 4.66 mmHg
- SBP Difference before and after administration, 3 h ([1]; 3 h): 15 mmHg
- SHR blood pressure (SBP), time after administration 3 h ([1]; 3 h, n = 8): 181 ± 9.15 mmHg
- SBP Difference before and after administration, 4 h ([1]; 4 h): 13 mmHg
- SHR blood pressure (SBP), time after administration 4 h ([1]; 4 h, n = 8): 183 ± 13.7 mmHg
- SBP Difference before and after administration, 5 h ([1]; 5 h): 18 mmHg
- SHR blood pressure (SBP), time after administration 5 h ([1]; 5 h, n = 8): 178 ± 15.9 mmHg
- SBP Difference before and after administration, 6 h ([1]; 6 h): 18 mmHg
- SHR blood pressure (SBP), time after administration 6 h ([1]; 6 h, n = 8): 178 ± 8.78 mmHg

Compound: COc1cc(C(O)CO)ccc1O (stereo not drawn) [Compound 25]
- SBP Difference before and after administration, 1 h ([1]; 1 h): 8 mmHg
- SHR blood pressure (SBP), time after administration 1 h ([1]; 1 h, n = 8): 191 ± 6.64 mmHg
- SBP Difference before and after administration, 2 h ([1]; 2 h): 10 mmHg
- SHR blood pressure (SBP), time after administration 2 h ([1]; 2 h, n = 8): 189 ± 7.77 mmHg
- SBP Difference before and after administration, 3 h ([1]; 3 h): 11 mmHg
- SHR blood pressure (SBP), time after administration 3 h ([1]; 3 h, n = 8): 186 ± 8.18 mmHg
- SBP Difference before and after administration, 4 h ([1]; 4 h): 15 mmHg
- SHR blood pressure (SBP), time after administration 4 h ([1]; 4 h, n = 8): 184 ± 4.56 mmHg
- SBP Difference before and after administration, 5 h ([1]; 5 h): 12 mmHg
- SHR blood pressure (SBP), time after administration 5 h ([1]; 5 h, n = 8): 187 ± 14.2 mmHg
- SBP Difference before and after administration, 6 h ([1]; 6 h): 11 mmHg
- SHR blood pressure (SBP), time after administration 6 h ([1]; 6 h, n = 8): 188 ± 5.55 mmHg

Compound: COCCc1ccc(OCC(O)CNC(C)C)cc1 (stereo not drawn) [Metoprolol Hydrochloride, reference compound]
- effect on heart rate while lowering blood pressure [1]: significantly slow down the heart rate
- time after administration of lowest value of blood pressure [1]: 3 h
- SHR heart rate, time after administration 0 h ([1]; 0 h, N = 8): 328 ± 24.5 beat/min
- Heart rate Difference before and after administration, 1 h ([1]; 1 h): −44 beat/min
- SBP Difference before and after administration, 1 h ([1]; 1 h): 20 mmHg
- SHR heart rate, time after administration 1 h ([1]; 1 h, N = 8): 283 ± 24.4 beat/min
- SHR blood pressure (SBP), time after administration 1 h ([1]; 1 h, n = 8): 166 ± 6.39 mmHg
- Heart rate Difference before and after administration, 2 h ([1]; 2 h): −45 beat/min
- SBP Difference before and after administration, 2 h ([1]; 2 h): 22 mmHg
- SHR heart rate, time after administration 2 h ([1]; 2 h, N = 8): 283 ± 23.1 beat/min
- SHR blood pressure (SBP), time after administration 2 h ([1]; 2 h, n = 8): 164 ± 4.50 mmHg
- Heart rate Difference before and after administration, 3 h ([1]; 3 h): −49 beat/min
- SBP Difference before and after administration, 3 h ([1]; 3 h): 25 mmHg
- SHR heart rate, time after administration 3 h ([1]; 3 h, N = 8): 279 ± 22.3 beat/min
- SHR blood pressure (SBP), time after administration 3 h ([1]; 3 h, n = 8): 161 ± 9.15 mmHg
- Heart rate Difference before and after administration, 4 h ([1]; 4 h): −48 beat/min
- SBP Difference before and after administration, 4 h ([1]; 4 h): 24 mmHg
- SHR heart rate, time after administration 4 h ([1]; 4 h, N = 8): 280 ± 23.0 beat/min
- SHR blood pressure (SBP), time after administration 4 h ([1]; 4 h, n = 8): 163 ± 13.7 mmHg
- Heart rate Difference before and after administration, 5 h ([1]; 5 h): −43 beat/min
- SBP Difference before and after administration, 5 h ([1]; 5 h): 23 mmHg
- SHR heart rate, time after administration 5 h ([1]; 5 h, N = 8): 285 ± 24.0 beat/min
- SHR blood pressure (SBP), time after administration 5 h ([1]; 5 h, n = 8): 164 ± 15.9 mmHg
- Heart rate Difference before and after administration, 6 h ([1]; 6 h): −40 beat/min
- SBP Difference before and after administration, 6 h ([1]; 6 h): 18 mmHg
- SHR heart rate, time after administration 6 h ([1]; 6 h, N = 8): 288 ± 28.5 beat/min
- SHR blood pressure (SBP), time after administration 6 h ([1]; 6 h, n = 8): 168 ± 8.78 mmHg
- average heart rate slowed by ([1]; 6 hours after administration): 46 beats/min
- Blood pressure (SBP, mmHg) After administration [1, 4]: 164 ± 7.85 mmHg
- Heart rate (beat/min) After administration [1, 4]: 282 ± 21.3 beat/min
- Heart rate Difference (beat/min) ([1]; after administration minus baseline (6 h)): −46 beat/min
- blood pressure reduction after administration ([1]; at most recorded time points): more than 20 mmHg
- Blood pressure Difference mmHg ([1]; baseline minus after administration (6 h)): 23 mmHg
- Blood pressure (SBP, mmHg) Baseline [1, 5]: 186 ± 7.87 mmHg
- Heart rate (beat/min) Baseline [1, 5]: 328 ± 24.5 beat/min

Compound: CCCc1nn(C)c2c(=O)[nH]c(-c3cc(S(=O)(=O)N4CCN(C)CC4)ccc3OCC)nc12 [Sildenafil, reference compound]
- value of RV/(LV+S), remodeling of the right ventricle ([2]; gavage): effectively reduce
- 2 × MT/ED ([2]; po): 0.238 ± 0.018
- RVHI ([2]; po): 0.240 ± 0.028
- RVSP ([2]; po): 50.12 ± 2.96 mmHg
- mPAP ([2]; po): 14.34 ± 2.48 mmHg

Compound: CC(C)N(CCCCOCC(=O)NS(C)(=O)=O)c1cnc(-c2ccccc2)c(-c2ccccc2)n1 [selexipag, reference compound]
- pulmonary arteriole hypertrophy vs. Model [3]: significantly reduced
- 2 × MT/ED ([3]; twice a day): 0.30 ± 0.086
- RVHI ([3]; twice a day): 0.27±0.026
- RVSP ([3]; twice a day): 35.67 ± 2.89 mmHg
- mPAP ([3]; twice a day): 8.78 ± 1.98 mmHg
